Source: patent US11352604B2, “Method of making cardiomyocytes from human pluripotent cells” (Wisconsin Alumni Research Foundation, priority 2016, dated 2022)

Columns and labels:
Format in all cases: cell-based, human
[1] = tested on: hPSC-derived cardiac progenitors and hPSC-CMs; experiment: RT-qPCR gene expression in progenitors or cardiomyocytes
Protocol: Frozen cell pellets from progenitors or cardiomyocytes in the 19-9-11 iPS cell line were thawed and RNA isolated using RNeasy spin columns with on-column DNase treatment according to the manufacturer's instructions (Qiagen). 500 ng of isolated RNA was used as template for reverse transcription using Biorad iScript RT supermix according to the manufacturer's instructions. 2.5 ng of derived cDNA was then used as template in qPCR with Taqman® primers bearing FAM-MGB dyes for genes of interest in a 20 μL reaction with Taqman® universal PCR supermix and the manufacturer's recommended cycling conditions (Thermo Fisher Scientific).

[2] = tested on: day 5 cardiac progenitors; experiment: Gene ontology / KEGG pathway analysis of pI:C up- and downregulated RNA-seq genes; settings: pI:C top upregulated GO terms
Protocol: Day-5 cells from d3-5 untreated, TGFβ-treated, and pI:C-treated progenitors from the 19-9-11 iPS cell line were separately prepared as above for cell dissociation of progenitors from three different wells of each condition (for 9 total sequencing samples) and isolated as described above for RNA for RT-qPCR. rRNA-reduced Illumina TruSeq™ Stranded total RNA libraries were prepared and 1×100 bp single end sequencing was performed. To map and annotate RNA-seg data, STAR and HTSeq were used, respectively (Anders et al., 2015; Dobin and Gingeras, 2015). Annotated transcript counts were further processed with DeSEq2 for differential gene expression analysis (Love et al., 2014). Gene neighborhood analysis was performed with NEST (Jiang et al., 2015).

[3] = tested on: day 5 cardiac progenitor cells; experiment: Propidium iodide cell cycle flow cytometry; settings: day 5 cardiac progenitor cells
Protocol: Propidium iodide staining was performed on ethanol-fixed cells of the 19-9-11 iPS cell line with a low flow rate and linear mode fluorescence according to a previously published protocol (Darzynkiewicz and Juan, 2001).

[4] = tested on: hPSC-CM sheets from replated progenitors; experiment: Video edge detection / beating analysis of cardiomyocyte sheets
Protocol: For quantification of spatial regularity and graphical presentation of time averaged beating in microtissue from the H9-cTnT-GFP (FIGS. 9A, C) or 19-9-11 (FIG. 9B) cell lines, .avi video files of low-powered (2.5× magnification) fields were recorded at a resolution of 1268×720 and a frame rate of 20/second. These videos were exported into a series of sequential .tiff files using Adobe Premiere, and then analyzed in MATLAB using previously described coding algorithms (Huebsch et al., 2015). Calculations of beat rate (before and after ivrabradine, […] for 2 hours, Sigma) were performed manually in the 19-9-11 cell line and multifocal patterns in untreated progenitor-derived sheets were represented as the average rate of beating for all foci present in a field.

DBT, ATP5F1, SLC25A4 = experiment: Quantitative immunostaining of upregulated metabolic proteins; settings: hPSC-CMs from pI:C-treated vs untreated progenitors
Protocol: For internal antigens, cells were rinsed of media two times in PBS, fixed for 10 minutes in 4% paraformaldehyde at RT, rinsed three times again in PBS, then blocked for 1 hour at room temperature (RT) in Licor blocking buffer containing 0.2% Triton x-100 (Sigma). Blocking solution was aspirated and antibodies added overnight at 4° C. in fresh blocking/permeabilization solution. Antibodies used were mouse cardiac troponin T (Thermo Fisher Scientific, 1:200), rabbit WT1 (Abcam 1:200), mouse smooth muscle myosin heavy chain (Abcam, 1:200), goat Jag1 c-terminal domain (1:200 Abcam), MMP1 (Abcam, 1:200), mouse cardiac actin (Sigma, 1:200), rabbit SLC25A4 (Proteintech, 1:100), rabbit DBT (Proteintech, 1:100), rabbit ATP5F1 (Proteintech, 1:100), rabbit Irx4 (Abcam, 1:200), goat nkx2.5 (Santa Cruz, 1:50), mouse connexin 40 (Thermo Fisher Scientific, 1:200), and fibroblast-specific protein (Abcam, 1:100). After primary and secondary antibodies, cells were rinsed two times in PBS with 0.2% triton x-100. Donkey secondaries conjugated to Alexa Fluor dyes were used at 1:1000 and incubated at RT for 1 h. DAPI or Hoechst was used to visualize nuclei. Cells were imaged either on an EVOS system in wells (Thermo Fisher Scientific) or a Leica confocal microscope in cover glass or ibidi 8-well microslides. Image J was used to quantify cell area by outer boundaries of cTnT staining.

[5] = primed vs untreated cardiac progenitors, qPCR
[6] = KEGG_PATHWAY hsa03030:DNA replication
[7] = KEGG_PATHWAY hsa03430:Mismatch repair
[8] = KEGG_PATHWAY hsa03460:Fanconi anemia pathway
[9] = KEGG_PATHWAY hsa04110:Cell cycle
[10] = KEGG_PATHWAY hsa05034:Alcoholism
[11] = KEGG_PATHWAY hsa05203:Viral carcinogenesis
[12] = KEGG_PATHWAY hsa05322:Systemic lupus erythematosus

polyinosinic-polycytidylic acid [pI:C]
myofilament gene expression ([1]; day 9 cells, treated vs untreated progenitors): increased expression of all myofilament genes studied
expression of cardiomyocyte maturation genes such as cTnI and αMHC ([1]; day 20 pPSC-CM, pI:C vs untreated): increased the expression levels
expression of cardiac fibroblast genes (Thy1, MMP1, Collagen 1a, WT1) ([1]; pI:C treatment vs untreated): downregulated
levels of type I HDAC1-3 [1, 5]: unchanged to unregulated levels
levels of type II histone deacetylases (HDAC4-7) [1, 5]: universally lower levels
% (genes in term) [2, 6]: 2.3989%
Count (upregulated genes in term) [2, 6]: 18
% (genes in term) [2, 7]: 1.0662%
Count (upregulated genes in term) [2, 7]: 8
% (genes in term) [2, 8]: 1.3327%
Count (upregulated genes in term) [2, 8]: 10
% (genes in term) [2, 9]: 1.9991%
Count (upregulated genes in term) [2, 9]: 15
% (genes in term) [2, 10]: 4.6645%
Count (upregulated genes in term) [2, 10]: 35
% (genes in term) [2, 11]: 3.1985%
Count (upregulated genes in term) [2, 11]: 24
% (genes in term) ([2]; KEGG_PATHWAY hsa05218:Melanoma): 1.3327%
Count (upregulated genes in term) ([2]; KEGG_PATHWAY hsa05218:Melanoma): 10
% (genes in term) [2, 12]: 4.7978%
Count (upregulated genes in term) [2, 12]: 36
fraction of cells in the G2/S phase of the cell cycle [3]: increased
contraction pattern of cell sheets from dissociated progenitors ([4]; primed progenitors): highly organized, propagating waves of contraction
beat angle range ([4]; sheets from primed relative to untreated progenitors): lower range
expression of DBT, ATP5F1 and SLC25A4 (DBT, ATP5F1, SLC25A4): increased expression
